Data reported in PMC2430034, “Structural Development Studies of Subtype-Selective Ligands for Peroxisome Proliferator-Activated Receptors (PPARs) Based on the 3,4-Disubstituted Phenylpropanoic Acid Scaffold as a Versatile Template” (PPAR Research, 2008).
Where two headings read alike, the source gives them in different places.

Legend:
Format in all cases: cell-based
PPARα [1] = target: T1, PPARα (Homo sapiens, UniProt Q07869); assay: PPARα-GAL4 chimeric receptor transactivation in HEK-293 cells; settings: PPAR-GAL4 chimeric receptors, transiently transfected HEK-293 cells; ia = inactive at 10 μM
T1 sequence (Q07869 200-468 limits assumed): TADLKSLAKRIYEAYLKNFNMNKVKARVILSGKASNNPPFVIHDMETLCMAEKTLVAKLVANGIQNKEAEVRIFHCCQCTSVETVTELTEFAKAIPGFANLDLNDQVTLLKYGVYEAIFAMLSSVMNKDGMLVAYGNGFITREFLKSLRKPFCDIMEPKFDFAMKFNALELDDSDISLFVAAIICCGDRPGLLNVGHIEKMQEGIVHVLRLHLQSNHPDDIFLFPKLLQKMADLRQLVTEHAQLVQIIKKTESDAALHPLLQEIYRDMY

PPARδ [2] = target: T2, PPARδ (Homo sapiens, UniProt Q03181); assay: cell-based; settings: PPAR-GAL4 chimeric receptors, transiently transfected HEK-293 cells; ia = inactive at 10 μM; read-out: Transactivation activity EC50 PPARδ
T2 sequence (Q03181 171-441 limits assumed): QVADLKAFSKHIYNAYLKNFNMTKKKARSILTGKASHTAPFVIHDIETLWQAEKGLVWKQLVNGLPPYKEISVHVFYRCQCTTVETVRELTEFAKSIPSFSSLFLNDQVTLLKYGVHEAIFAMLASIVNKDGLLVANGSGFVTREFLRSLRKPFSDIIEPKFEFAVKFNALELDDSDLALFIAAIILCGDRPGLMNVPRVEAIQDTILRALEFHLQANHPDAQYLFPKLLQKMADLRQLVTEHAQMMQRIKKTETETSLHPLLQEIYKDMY

PPARα [3] = target: T1, PPARα; assay: PPARα-GAL4 chimeric receptor transactivation in CHO-K1 cells; settings: for EC50: read-out: Transactivation activity EC50 PPARα
PPARδ [4] = target: T3, PPARδ (Homo sapiens, UniProt Q03181); assay: cell-based; settings: PPAR-GAL4 chimeric receptors, transiently transfected CHO-K1 cells, ia = inactive at 10 μM; for EC50: read-out: Transactivation activity EC50 PPARδ
T3 sequence (Q03181 211-441 limits assumed): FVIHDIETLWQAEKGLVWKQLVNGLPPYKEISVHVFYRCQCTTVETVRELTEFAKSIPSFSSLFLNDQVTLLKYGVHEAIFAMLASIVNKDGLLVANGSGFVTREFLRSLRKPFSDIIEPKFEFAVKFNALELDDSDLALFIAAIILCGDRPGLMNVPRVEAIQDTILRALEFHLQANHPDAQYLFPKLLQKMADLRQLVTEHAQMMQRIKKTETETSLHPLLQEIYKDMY

PPARγ = target: T4, PPARγ (Homo sapiens, UniProt P37231); assay: cell-based; settings: PPAR-GAL4 chimeric receptors, transiently transfected CHO-K1 cells, ia = inactive at 10 μM; for EC50: read-out: Transactivation activity EC50 PPARγ
T4 sequence (P37231 232-505 limits assumed): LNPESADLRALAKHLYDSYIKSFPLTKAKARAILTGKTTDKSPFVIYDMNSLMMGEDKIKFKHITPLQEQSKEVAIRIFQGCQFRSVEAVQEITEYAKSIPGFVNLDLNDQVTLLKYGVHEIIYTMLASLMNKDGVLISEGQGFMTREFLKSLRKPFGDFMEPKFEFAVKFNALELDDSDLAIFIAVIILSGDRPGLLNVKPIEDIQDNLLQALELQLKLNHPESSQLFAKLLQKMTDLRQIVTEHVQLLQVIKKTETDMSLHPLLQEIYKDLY

[5] = PPAR-GAL4 chimeric receptors, transiently transfected CHO-K1 cells, ia = inactive at 10 μM

Row | Structure (SMILES) | Transactivation activity EC50 PPARδ (PPARδ [4]) | Transactivation activity EC50 PPARγ (PPARγ) | EC50 (PPARα [3]; [5]) [nM] | further results
1 | CCC(Cc1ccc(OC)c(CNC(=O)c2ccc(C(F)(F)F)cc2)c1)C(=O)O (racemic) [Compound 49] | – | – | – | EC50 (PPARα [1]): 18 nM; EC50 (PPARδ [2]): 170 nM
2 | CCC(Cc1ccc(OC)c(CNC(=O)c2ccc(C(F)(F)F)cc2F)c1)C(=O)O (racemic) [Compound 55] | – | – | – | EC50 (PPARα [1]): 8.2 nM; EC50 (PPARδ [2]): 21 nM
3 | COc1ccc(C(=O)O)cc1C(=O)NCc1ccc(C(F)(F)F)cc1 [Compound 7] | ia | ia | – | Transactivation activity EC50 PPARα (PPARα [3]; [5]): ia^(b)
4 | COc1ccc(CC(=O)O)cc1C(=O)NCc1ccc(C(F)(F)F)cc1 [Compound 8] | ia | ia | – | Transactivation activity EC50 PPARα (PPARα [3]; [5]): ia
5 | COc1ccc(CCC(=O)O)cc1C(=O)NCc1ccc(C(F)(F)F)cc1 [Compound 9] | ia | ia | 1300 | –
6 | COc1ccc(CC(C)C(=O)O)cc1C(=O)NCc1ccc(C(F)(F)F)cc1 (centres unmarked) [Compound 10] | – | ia | 240 | EC50 (PPARδ [4]): 2800 nM
7 | CCC(Cc1ccc(OC)c(C(=O)NCc2ccc(C(F)(F)F)cc2)c1)C(=O)O (centres unmarked) [Compound 11] | – | – | 40 | EC50 (PPARδ [4]): 3600 nM
8 | CCCC(Cc1ccc(OC)c(C(=O)NCc2ccc(C(F)(F)F)cc2)c1)C(=O)O (centres unmarked) [Compound 12] | – | ia | 360 | EC50 (PPARδ [4]): 2400 nM
9 | COc1ccc(CC(C(=O)O)C(C)C)cc1C(=O)NCc1ccc(C(F)(F)F)cc1 (centres unmarked) [Compound 13] | ia | ia | 290 | –
10 | CCCCC(Cc1ccc(OC)c(C(=O)NCc2ccc(C(F)(F)F)cc2)c1)C(=O)O (centres unmarked) [Compound 14] | ia | – | 1000 | EC50 (PPARγ): 2500 nM
11 | COc1ccc(CC(C(=O)O)c2ccccc2)cc1C(=O)NCc1ccc(C(F)(F)F)cc1 (centres unmarked) [Compound 15] | ia | ia | – | Transactivation activity EC50 PPARα (PPARα [3]; [5]): ia
12 | COc1ccc(CC(OC)C(=O)O)cc1C(=O)NCc1ccc(C(F)(F)F)cc1 (centres unmarked) [Compound 16] | ia | ia | 230 | –
13 | CCOC(Cc1ccc(OC)c(C(=O)NCc2ccc(C(F)(F)F)cc2)c1)C(=O)O (centres unmarked) [Compound 17] | – | – | 1600 | EC50 (PPARδ [4]): 3000 nM; EC50 (PPARγ): 2800 nM
14 | COc1ccc(CC(Oc2ccccc2)C(=O)O)cc1C(=O)NCc1ccc(C(F)(F)F)cc1 (centres unmarked) [Compound 18] | ia | ia | – | Transactivation activity EC50 PPARα (PPARα [3]; [5]): ia
15 | COc1ccc(CC(C)(C)C(=O)O)cc1C(=O)NCc1ccc(C(F)(F)F)cc1 [Compound 19] | ia | ia | 2900 | –
16 | CCC(CC)(Cc1ccc(OC)c(C(=O)NCc2ccc(C(F)(F)F)cc2)c1)C(=O)O [Compound 20] | ia | ia | 2800 | –

Row | Structure (SMILES) | Transactivation activity EC50 PPARδ (PPARδ [4]) | Transactivation activity EC50 PPARγ (PPARγ) | EC50 (PPARα [3]; [5]) [nM] | further results
17 | COc1ccc(CC(Sc2ccccc2)C(=O)O)cc1C(=O)NCc1ccc(C(F)(F)F)cc1 (centres unmarked) [Compound 22] | ia | ia | – | Transactivation activity EC50 PPARα (PPARα [3]; [5]): ia
18 | COc1ccc(CC(SCc2ccccc2)C(=O)O)cc1C(=O)NCc1ccc(C(F)(F)F)cc1 (centres unmarked) [Compound 23] | ia | ia | – | Transactivation activity EC50 PPARα (PPARα [3]; [5]): ia
19 | CCC(Cc1ccc(OC)c(C(=O)Nc2ccc(C(F)(F)F)cc2)c1)C(=O)O (centres unmarked) [Compound 24] | ia^(b) | ia | – | EC50 (PPARα [3]): 6000 nM
20 | CCC(Cc1ccc(OC)c(C(=O)NCCc2ccc(C(F)(F)F)cc2)c1)C(=O)O (centres unmarked) [Compound 25] | – | ia | – | EC50 (PPARα [3]): 740 nM; EC50 (PPARδ [4]): 1500 nM
21 | CCC(Cc1ccc(OC)c(C(=O)N(C)Cc2ccc(C(F)(F)F)cc2)c1)C(=O)O (centres unmarked) [Compound 26] | ia | ia | – | Transactivation activity EC50 PPARα (PPARα [3]; [5]): ia
22 | CCC(Cc1ccc(OC)c(NC(=O)Cc2ccc(C(F)(F)F)cc2)c1)C(=O)O (centres unmarked) [Compound 27] | ia | ia | – | EC50 (PPARα [3]): 130 nM
23 | CCC(Cc1ccc(OC)c(NC(=O)Nc2ccc(C(F)(F)F)cc2)c1)C(=O)O (centres unmarked) [Compound 28] | ia | ia | – | Transactivation activity EC50 PPARα (PPARα [3]; [5]): ia
24 | CCC(Cc1ccc(OC)c(CC(=O)Nc2ccc(C(F)(F)F)cc2)c1)C(=O)O (centres unmarked) [Compound 29] | ia | ia | – | EC50 (PPARα [3]): 20 nM
25 | CCC(Cc1ccc(OC)c(C(=O)CCc2ccc(C(F)(F)F)cc2)c1)C(=O)O (centres unmarked) [Compound 30] | ia | – | – | EC50 (PPARα [3]): 320 nM; EC50 (PPARγ): 7400 nM
26 | CCC(Cc1ccc(OC)c(CCCc2ccc(C(F)(F)F)cc2)c1)C(=O)O (centres unmarked) [Compound 31] | – | ia | – | EC50 (PPARα [3]): 860 nM; EC50 (PPARδ [4]): 640 nM
27 | CCC(Cc1ccc(OC)c(OCCc2ccc(C(F)(F)F)cc2)c1)C(=O)O (centres unmarked) [Compound 32] | – | ia | – | EC50 (PPARα [3]): 680 nM; EC50 (PPARδ [4]): 400 nM
28 | CCC(Cc1ccc(OC)c(CNCc2ccc(C(F)(F)F)cc2)c1)C(=O)O (centres unmarked) [Compound 34] | – | ia | – | EC50 (PPARα [3]): 4900 nM; EC50 (PPARδ [4]): 8000 nM
29 | COc1ccc(CCC(=O)O)cc1CNC(=O)c1ccc(C(F)(F)F)cc1 [Compound 58] | – | – | – | EC50 (PPARα [1]): 210 nM; EC50 (PPARδ [2]): 3000 nM
30 | COc1ccc(CC(C)C(=O)O)cc1CNC(=O)c1ccc(C(F)(F)F)cc1 (centres unmarked) [Compound 59] | – | – | – | EC50 (PPARα [1]): 19 nM; EC50 (PPARδ [2]): 210 nM
31 | COc1ccc(CC2SC(=O)NC2=O)cc1C(=O)NCc1ccc(C(F)(F)F)cc1 (centres unmarked) [KRP-297, reference compound] | ia | – | – | –
